Patent publication US20190358242A1, “COMPOSITIONS, KITS, AND METHODS TO INDUCE ACQUIRED CYTORESISTANCE USING STRESS PROTEIN INDUCERS” (FRED HUTCHINSON CANCER RESEARCH CENTER, priority 2017, published 2019)

Columns and labels:
HO-1 protein = assay: Renal cortical HO-1 protein (ELISA) after FeS, SnPP, B12; assay type: in vivo, CD-1 mice; conditions: for HO-1 protein increases (FIG. 21): 4 hrs and 18 hrs after IV injection
Method: Effects of FeS, SnPP, and B12 on renal cortical induction of heme oxygenase 1(HO-1). The following experiments assessed the effects of FeS, SnPP, and B12 on the possible induction of the cytoprotective protein HO-1. To this end, mice were injected with each of these agents, as noted above. Either 4 or 18 hrs later, they were anesthetized and the kidneys were removed through a midline abdominal incision. The renal cortices were dissected on ice and then extracted for protein and mRNA. The samples were then assayed for HO-1 protein by ELISA, and HO-1 mRNA by RT-PCR, factored by GAPDH levels. Five normal mice provided control values.

maleate model of AKI = assay: Maleate model of AKI (800 mg/Kg), FeS/SnPP and FeS/B12; assay type: in vivo, CD-1 mice; conditions: IV 18 hrs before 800 mg/Kg maleate; 18 hrs post maleate; 1 mg FeS, 1 μmole SnPP or B12
Source text: Effects of Fe sucrose (FeS)/tin protoporphyrin (SnPP) on AKI severity. Maleate model of AKI. When injected into rodents, maleate undergoes relatively selective proximal tubule cell uptake via organic anion transporters. Once intracellular accumulation occurs, maleate is a preferred substrate for succinyl-CoA:3-oxoacid CoA transferase. […] Ample levels of CoA are essential for fatty acid “activation”, allowing for their subsequent metabolism through the Krebs cycle, yielding ATP. In the absence of this process, proximal tubule ATP depletion and cell injury result. Additionally, maleate conjugates the sulfhydryl group of glutathione (GSH), culminating in GSH depletion and potential oxidant tubular stress.
The following experiment tested whether FeS, SnPP or combined FeS+SnPP can mitigate this form of acute kidney injury (AKI). Twenty seven mice were subjected to 200 μL IV tail injections of one of the following: 1) vehicle (phosphate buffered saline, PBS; n, 10); 2) 1 mg FeS (American Regent (Shirley, N.Y.; n, 3); 3) 1 μmole SnPP (Frontier Scientific, Logan, Utah; n 7), or FeS+SnPP, n, 7). […] The severity of kidney injury was assessed by determining plasma blood urea nitrogen (BUN) and plasma creatinine (PCr) concentrations.
Maleate model of AKI. […] The severity of AKI was determined 18 hrs post maleate injection by terminal BUN and PCr assessments.

ferritin heavy chain = assay: Kidney ferritin heavy chain expression (Western blotting); assay type: in vivo, mice; conditions: 18 hrs following 1 umole SnPP, 1 mg FeS or combined
Method: FIG. 32. Ferritin heavy chain expression (as determined by Western blotting) in kidneys 18 hrs following 1 umole tin protoporphyrin (SnPP), 1 mg Fe sucrose (FeS) or combined SnPP+FeS treatment.

Row | Substance | HO-1 protein increases (FIG. 21) (HO-1 protein) | Severity of maleate-induced AKI (BUN/PCr), in words (maleate model of AKI) | Renal cortical HO-1 protein levels (HO-1 protein; 18 hr time point) | Ferritin heavy chain protein levels in kidney (ferritin heavy chain)
1 | cyanocobalamin [B12] | marked HO-1 protein increases within 4 hrs and persists for 18 hrs |  |  | 
2 | iron sucrose [FeS] | marked HO-1 protein increases within 4 hrs and persists for 18 hrs | Neither SnPP alone nor FeS alone significantly altered the severity of renal injury | remained elevated at the 18 hr time point, particularly in the case of FeS administration | strong ferritin inducer
